In patent US11584747B2, “Substituted pyridopyrimidinonyl compounds useful as T cell activators” (BRISTOL-MYERS SQUIBB COMPANY, priority 2019, dated 2023):
Like-named read-outs stand apart in the source and are kept apart here.

How the values were obtained:
human DGKζ = human DGKζ (Homo sapiens (Human), UniProt Q13574); assay: DGKζ LIPGLO assay (extruded liposome substrate, ADP-Glo luminescence); assay type: biochemical
human DGKα = human DGKα (Homo sapiens (Human), UniProt P23743); assay: DGKα ADPGLO assay (detergent/lipid micelle substrate); assay type: biochemical
human DGKα, sequence (P23743 whole entry, looked up, the tested form may be a part): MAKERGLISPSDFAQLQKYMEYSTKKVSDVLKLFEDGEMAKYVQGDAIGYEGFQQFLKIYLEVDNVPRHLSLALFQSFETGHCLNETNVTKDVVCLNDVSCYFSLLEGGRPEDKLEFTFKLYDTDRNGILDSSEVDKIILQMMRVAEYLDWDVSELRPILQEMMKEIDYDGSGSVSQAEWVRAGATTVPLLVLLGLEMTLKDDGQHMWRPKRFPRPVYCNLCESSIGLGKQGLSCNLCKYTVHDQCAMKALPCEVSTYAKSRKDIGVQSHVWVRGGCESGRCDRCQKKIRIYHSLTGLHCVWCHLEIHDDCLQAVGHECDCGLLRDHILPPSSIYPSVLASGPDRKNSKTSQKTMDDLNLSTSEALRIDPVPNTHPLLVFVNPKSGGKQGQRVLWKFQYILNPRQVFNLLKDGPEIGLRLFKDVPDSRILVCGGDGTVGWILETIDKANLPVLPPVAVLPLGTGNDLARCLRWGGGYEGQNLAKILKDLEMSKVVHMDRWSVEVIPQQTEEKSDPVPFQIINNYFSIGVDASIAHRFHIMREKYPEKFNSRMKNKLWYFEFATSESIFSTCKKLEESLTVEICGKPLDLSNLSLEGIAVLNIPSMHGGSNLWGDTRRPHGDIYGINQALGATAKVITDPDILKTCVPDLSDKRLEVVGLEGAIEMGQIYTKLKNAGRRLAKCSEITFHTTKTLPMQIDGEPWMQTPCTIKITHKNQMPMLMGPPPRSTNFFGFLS
Protocol: DGK Alpha ADPGLO (Truncated) IC50 (uM)
The detergent/lipid micelle was prepared by combining 15 g phosphatidylserine (Avanti 840035P) and 1 g diacylglycerol (8008110) and dissolving into 150 mL chloroform in a 2 L round bottom flask. Chloroform was removed under high vacuum by rotary evaporation. […] The lipid/detergent solution was split into 5 mL aliquots and stored at −80° C.

[1] = tested on: human venous whole blood (IFN-γ); assay: Human whole blood IFN-γ assay; assay type: cell-based
Protocol: Human venous whole blood (22.5 μL per well), obtained from healthy donors, was pre-treated with compounds for one hour at 37° C. in a humidified 95% air/5% CO2 incubator. The blood was stimulated with 2.5 μL anti-human CD3 and anti-CD28 mAb at a final concentration of 1 μg/mL each for 24 hours at 37° C. IFN-γ in the supernatants was measured using AlphLISA kit (Cat #AL217).

[2] = liposome assay, read-out: DGK zeta LIPGLO IC50
[3] = truncated DGK alpha, read-out: DGK alpha ADPGLO (Truncated) IC50
[4] = liposome (LIPGLO) assay, read-out: DGK zeta (liposome assay) IC50
[5] = ADPGLO assay, read-out: DGK alpha ADPGLO IC50
[6] = Homo sapiens, 24 h, human whole blood, anti-CD3 plus anti-CD28 stimulation, 24 hours, read-out: IFN-γ Whole Blood EC50
[7] = Homo sapiens, whole blood, normalized to 3 μM reference compound as 100% activation, read-out: IFN-γ Whole Blood Normalized EC50
[8] = whole blood, normalized to 3 μM reference compound as 100% activation, read-out: IFN-γ Whole Blood Normalized EC50

human DGKζ, sequence (Q13574 other isoform, or with tags, fused parts or gaps): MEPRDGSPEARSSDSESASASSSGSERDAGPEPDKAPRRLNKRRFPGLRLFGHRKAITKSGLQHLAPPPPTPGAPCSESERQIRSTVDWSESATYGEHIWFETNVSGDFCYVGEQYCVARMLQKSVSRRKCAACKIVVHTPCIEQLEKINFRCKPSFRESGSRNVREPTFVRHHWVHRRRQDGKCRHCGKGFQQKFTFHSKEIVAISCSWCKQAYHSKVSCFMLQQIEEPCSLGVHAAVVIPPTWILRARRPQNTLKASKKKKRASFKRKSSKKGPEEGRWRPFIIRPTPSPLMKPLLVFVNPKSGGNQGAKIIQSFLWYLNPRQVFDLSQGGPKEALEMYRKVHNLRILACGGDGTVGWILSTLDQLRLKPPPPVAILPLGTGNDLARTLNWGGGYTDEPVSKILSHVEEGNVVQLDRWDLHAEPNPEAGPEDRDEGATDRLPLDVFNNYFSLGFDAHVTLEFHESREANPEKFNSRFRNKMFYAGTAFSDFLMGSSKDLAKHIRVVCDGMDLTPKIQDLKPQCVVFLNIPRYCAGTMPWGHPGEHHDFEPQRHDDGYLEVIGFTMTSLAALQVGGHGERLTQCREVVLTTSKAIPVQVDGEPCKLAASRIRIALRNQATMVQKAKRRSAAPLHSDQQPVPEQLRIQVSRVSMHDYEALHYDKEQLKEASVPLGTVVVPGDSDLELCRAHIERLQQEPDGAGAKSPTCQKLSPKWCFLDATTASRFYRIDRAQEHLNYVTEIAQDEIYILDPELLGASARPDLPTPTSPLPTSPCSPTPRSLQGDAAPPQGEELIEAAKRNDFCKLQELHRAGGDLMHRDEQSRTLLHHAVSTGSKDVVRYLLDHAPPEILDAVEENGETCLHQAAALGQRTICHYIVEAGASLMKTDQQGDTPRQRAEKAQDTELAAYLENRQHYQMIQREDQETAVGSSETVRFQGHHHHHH

IC50 (human DGKζ; [4]) [nM]	IC50 (human DGKα; [5]) [nM]	SMILES	also measured
		CC[C@H]1CN(C(C)c2ccc(CN3CCCCC3)cc2)[C@H](CC)CN1c1nc(=O)n(C)c2ccc(C#N)nc12 (stereo partly drawn) [Example 282, 4-((2S,5R)-2,5-diethyl-4-(1-(4-(piperidin-1-ylmethyl)phenyl)ethyl)piperazin-1-yl)-1-methyl-2-oxo-1,2-dihydropyrido[3,2-d]pyrimidine-6-carbonitrile]	IC50 (human DGKζ; [2]): 1160 nM; IC50 (human DGKα; [3]): 150 nM
38	10	CCC(c1ccc(Br)cc1)N1C[C@H](C)N(c2nc(=O)n(C)c3ccc(C#N)nc23)C[C@H]1CC (stereo partly drawn) [Example 321, 4-((2 S,5R)-4-(1-(4-bromophenyl)propyl)-5-ethyl-2-methylpiperazin-1-yl)-1-methyl-2-oxo-1,2-dihydropyrido[3,2-d]pyrimidine-6-carbonitrile]	
12500	83300	CC[C@H]1CN(C(C)c2ccc(C(F)(F)F)cc2)[C@H](CC)CN1c1nc(=O)n(C)c2ccc(COC)nc12 (single isomer, unassigned) [Example 425]	
1050	4010	CCC(C1CC(F)(F)C1)N1C[C@H](C)N(c2nc(=O)n(C)c3ccc(C#N)nc23)C[C@H]1C (stereo partly drawn) [Example 457, 4-((2S,5R)-4-(1-(3,3-difluorocyclobutyl)propyl)-2,5-dimethylpiperazin-1-yl)-1-methyl-2-oxo-1,2-dihydropyrido[3,2-d]pyrimidine-6-carbonitrile]	
125000		CC[C@H]1CN(C(C)c2ccc(C(F)(F)F)cc2)[C@H](CC)CN1c1nc(=O)n(C)c2ccc(OC)nc12 (single isomer, unassigned) [Example 428]	EC50 [1, 6]: 20000 nM
280	77	CCOc1ccc(CN2C[C@H](C)N(c3nc(=O)n(C)c4ccc(C#N)nc34)C[C@H]2CC)cc1 [Example 310, 4-((2S,5R)-4-(4-ethoxybenzyl)-5-ethyl-2-methylpiperazin-1-yl)-1-methyl-2-oxo-1,2-dihydropyrido[3,2-d]pyrimidine-6-carbonitrile]	
770	140	CCOc1ccc(C(CC)N2C[C@H](C)N(c3nc(=O)n(C)c4ccc(C#N)nc34)C[C@H]2CC)cc1 (stereo partly drawn) [Example 307, 4-((2S,5R)-4-(1-(4-ethoxyphenyl)propyl)-5-ethyl-2-methylpiperazin-1-yl)-1-methyl-2-oxo-1,2-dihydropyrido[3,2-d]pyrimidine-6-carbonitrile]	
		CCC(c1ccc(C2CC2)cc1)N1C[C@H](C)N(c2nc(=O)n(C)c3ccc(C#N)nc23)C[C@H]1CC (stereo partly drawn) [Example 301, 4-((2S,5R)-4-(1-(4-cyclopropylphenyl)propyl)-5-ethyl-2-methylpiperazin-1-yl)-1-methyl-2-oxo-1,2-dihydropyrido[3,2-d]pyrimidine-6-carbonitrile]	IC50 (human DGKζ; [2]): 430 nM; IC50 (human DGKα; [3]): 130 nM
		CC[C@@H]1CN(c2nc(=O)n(C)c3ccc(C#N)nc23)[C@@H](C)CN1C(c1ccc(F)cc1)c1cc(C2CC2)on1 (single isomer, unassigned) [Example 102]	IC50 (human DGKζ; [2]): 94 nM
		CC[C@H]1CN(C(C)c2ccc(CN3CCCCC3)cc2)[C@H](CC)CN1c1nc(=O)n(C)c2ccc(C#N)nc12 (stereo partly drawn) [Example 281, 4-((2S,5R)-2,5-diethyl-4-(1-(4-(piperidin-1-ylmethyl)phenyl)ethyl)piperazin-1-yl)-1-methyl-2-oxo-1,2-dihydropyrido[3,2-d]pyrimidine-6-carbonitrile]	IC50 (human DGKζ; [2]): 43600 nM; IC50 (human DGKα; [3]): 7170 nM
		CC[C@H]1CN(C(C)c2ccc(C3(C#N)CC3)cc2)[C@H](CC)CN1c1nc(=O)n(C)c2ccc(C#N)nc12 (stereo partly drawn) [Example 263, 4-((2S,5R)-4-(1-(4-(1-cyanocyclopropyl)phenyl)ethyl)-2,5-diethylpiperazin-1-yl)-1-methyl-2-oxo-1,2-dihydropyrido[3,2-d]pyrimidine-6-carbonitrile]	IC50 (human DGKζ; [2]): 62 nM; IC50 (human DGKα; [3]): 290 nM
150	160	CCC(c1ccc(C2CC2)cc1)N1C[C@H](C)N(c2nc(=O)n(C)c3ccc(C#N)nc23)C[C@H]1C (stereo partly drawn) [Example 378, 4-((2S,5R)-4-(1-(4-cyclopropylphenyl)propyl)-2,5-dimethylpiperazin-1-yl)-1-methyl-2-oxo-1,2-dihydropyrido[3,2-d]pyrimidine-6-carbonitrile]	
220	24	CC[C@@H]1CN(c2nc(=O)n(C)c3ccc(C#N)nc23)[C@@H](C)CN1C(C)c1ccc(CNC(=O)OC)cc1 (stereo partly drawn) [Example 359, Methyl (4-(1-((2R,5S)-4-(6-cyano-1-methyl-2-oxo-1,2-dihydropyrido[3,2-d]pyrimidin-4-yl)-2-ethyl-5-methylpiperazin-1-yl)ethyl)benzyl)carbamate]	
23900	29800	CCC(C1CCC(F)(F)CC1)N1C[C@H](C)N(c2nc(=O)n(C)c3ccc(C#N)nc23)C[C@H]1C (stereo partly drawn) [Example 459, 4-((2S,5R)-4-(1-(4,4-difluorocyclohexyl)propyl)-2,5-dimethylpiperazin-1-yl)-1-methyl-2-oxo-1,2-dihydropyrido[3,2-d]pyrimidine-6-carbonitrile]	
12000	11600	CCC(C1CCC(F)(F)CC1)N1C[C@H](C)N(c2nc(=O)n(C)c3ccc(C#N)nc23)C[C@H]1C (stereo partly drawn) [Example 460, 4-((2S,5R)-4-(1-(4,4-difluorocyclohexyl)propyl)-2,5-dimethylpiperazin-1-yl)-1-methyl-2-oxo-1,2-dihydropyrido[3,2-d]pyrimidine-6-carbonitrile]	
		CCC(c1ccc(C(F)(F)F)cc1)N1C[C@H](CC)N(c2nc(=O)n(C)c3ccc(C#N)nc23)C[C@H]1CC (single isomer, unassigned) [Example 5]	IC50 (human DGKα; [3]): 64 nM
3600	450	CCC(c1ccc(C2CC2)cc1)N1C[C@H](C)N(c2nc(=O)n(C)c3ccc(C#N)nc23)C[C@H]1C (stereo partly drawn) [Example 379, 4-((2S,5R)-4-(1-(4-cyclopropylphenyl)propyl)-2,5-dimethylpiperazin-1-yl)-1-methyl-2-oxo-1,2-dihydropyrido[3,2-d]pyrimidine-6-carbonitrile]	
		CC[C@@H]1CN(c2nc(=O)n(C)c3ccc(C#N)nc23)[C@@H](C)CN1Cc1ccc2c(c1)OC(F)(F)O2 [Example 55, 4-((2S,5R)-((2,2-difluorobenzo[d][1,3]dioxol-5-yl)methyl)-5-ethyl-2-methylpiperazin-1-yl)-1-methyl-2-oxo-1,2-dihydropyrido[3,2-d]pyrimidine-6-carbonitrile]	EC50 [1, 7]: 790 nM
41700		CC[C@H]1CN(C(C)c2ccc(C(F)(F)F)cc2)[C@H](CC)CN1c1nc(=O)n(C)c2ccc(OCCN(C)C)nc12 (stereo partly drawn) [Example 432, 4-((2S,5R)-2,5-diethyl-4-(1-(4-(trifluoromethyl)phenyl)ethyl)piperazin-1-yl)-6-(2-(dimethylamino)ethoxy)-1-methylpyrido[3,2-d]pyrimidin-2(1H)-one]	EC50 ([1]; human whole blood, anti-CD3 plus anti-CD28 stimulation, 24 hours, read-out: IFN-γ Whole Blood EC50): 20000 nM
		CC[C@H]1CN(C(C)c2ccc(OC(F)(F)F)cc2F)[C@H](CC)CN1c1nc(=O)n(C)c2ccc(C#N)nc12 (single isomer, unassigned) [Example 39]	IC50 (human DGKζ; [2]): 770 nM; EC50 [1, 8]: 2730 nM
		CC[C@@H]1CN(c2nc(=O)n(C)c3ccc(C#N)nc23)[C@@H](C)CN1C(C)c1ccc(C(F)(F)F)cc1 (single isomer, unassigned) [Example 7]	IC50 (human DGKα; [3]): 180 nM
		CCOC(=O)[C@H]1C[C@@H]1Oc1ccc(C(C)N2C[C@H](CC)N(c3nc(=O)n(C)c4ccc(C#N)nc34)C[C@H]2CC)cc1 (stereo partly drawn) [Example 260, ethyl (1S,2S)-2-(4-(1-((2R,5S)-4-(6-cyano-1-methyl-2-oxo-1,2-dihydropyrido[3,2-d]pyrimidin-4-yl)-2,5-diethylpiperazin-1-yl)ethyl)phenoxy)cyclopropane-1-carboxylate]	IC50 (human DGKζ; [2]): 3030 nM
		CC[C@H]1CN(C(C)c2ccc(N3CCCC3=O)cc2)[C@H](CC)CN1c1nc(=O)n(C)c2ccc(C#N)nc12 (stereo partly drawn) [Example 231, 4-((2S,5R)-2,5-diethyl-4-(1-(4-(2-oxopyrrolidin-1-yl)phenyl)ethyl)piperazin-1-yl)-1-methyl-2-oxo-1,2-dihydropyrido[3,2-d]pyrimidine-6-carbonitrile]	EC50 [1, 8]: 9740 nM
99500		CCOc1ccc2c(n1)c(N1C[C@@H](CC)N(C(C)c3ccc(C(F)(F)F)cc3)C[C@@H]1CC)nc(=O)n2C (stereo partly drawn) [Example 429, 4-((2S,5R)-2,5-diethyl-4-(1-(4-(trifluoromethyl)phenyl)ethyl)piperazin-1-yl)-6-ethoxy-1-methylpyrido[3,2-d]pyrimidin-2(1H)-one]	EC50 [1, 6]: 20000 nM
		CCCC(c1ccc(C(F)(F)F)cc1)N1C[C@H](CC)N(c2nc(=O)n(C)c3ccc(C#N)nc23)C[C@H]1CC (stereo partly drawn) [Example 244, 4-((2S,5R)-2,5-Diethyl-4-(1-(4-(trifluoromethyl)phenyl)butyl)piperazin-1-yl)-1-methyl-2-oxo-1,2-dihydropyrido[3,2-d]pyrimidine-6-carbonitrile]	EC50 [1, 8]: 13300 nM
	920	CCC[C@@H]1CN(c2nc(=O)n(C)c3ccc(C#N)nc23)[C@@H](C)CN1C(C)c1ccc(C(F)(F)F)cc1 (single isomer, unassigned) [Example 396]	
		C[C@@H]1CN(c2nc(=O)n(C)c3ccc(C#N)nc23)[C@@H](C)CN1C(c1ccc(F)cc1)c1ccc(C(F)(F)F)cn1 (stereo in doubt) [Example 126]	EC50 [1, 7]: 680 nM
